Data: patent US20230416240A1, “KAT6 TARGETING COMPOUNDS” (Prelude Therapeutics Incorporated, priority 2022, published 2023)

What follows are compounds tested against T1, HiBit tagged KAT6A (Homo sapiens, UniProt Q92794) (assay: HiBit KAT6A Degradation Assessment). Settings: HeLa cells with HiBit tagged KAT6A, 18 h of treatment, 9-point serial dilution.
T1 construct: host or cells: HeLa
Type: cell-based
Experimental: The degradation activity of compounds was evaluated by measuring levels of KAT6A protein using the HiBiT system. These studies were conducted in HeLa cells with a HiBit tagged KAT6A. Cells were maintained in a 37° C. incubator at 5% CO2 in EMEM (ATCC, 30-2003) supplemented with 10% v/v FBS (Gibco, 26140-079) and 1% penicillin streptomycin. Cells were seeded in 384-well plates at a density of 2,000 cells/well. Compounds dissolved in DMSO were added in 9-point serial dilution. After 18 h of treatment, KAT6A levels were measured using the Nano-Glo® HiBiT Lytic Detection System (Promega catalog number N3030) per manufacturer's instructions. Luminescence signal was measured with a multimode plate reader (Envision 2105, Perkin Elmer). Luminescence values were normalized to background and DMSO controls to quantify KAT6A for each condition. Results were analyzed, and DC50 and Dmax values obtained using a four-parameter logistic curve fit.

T1 sequence (Q92794 whole entry): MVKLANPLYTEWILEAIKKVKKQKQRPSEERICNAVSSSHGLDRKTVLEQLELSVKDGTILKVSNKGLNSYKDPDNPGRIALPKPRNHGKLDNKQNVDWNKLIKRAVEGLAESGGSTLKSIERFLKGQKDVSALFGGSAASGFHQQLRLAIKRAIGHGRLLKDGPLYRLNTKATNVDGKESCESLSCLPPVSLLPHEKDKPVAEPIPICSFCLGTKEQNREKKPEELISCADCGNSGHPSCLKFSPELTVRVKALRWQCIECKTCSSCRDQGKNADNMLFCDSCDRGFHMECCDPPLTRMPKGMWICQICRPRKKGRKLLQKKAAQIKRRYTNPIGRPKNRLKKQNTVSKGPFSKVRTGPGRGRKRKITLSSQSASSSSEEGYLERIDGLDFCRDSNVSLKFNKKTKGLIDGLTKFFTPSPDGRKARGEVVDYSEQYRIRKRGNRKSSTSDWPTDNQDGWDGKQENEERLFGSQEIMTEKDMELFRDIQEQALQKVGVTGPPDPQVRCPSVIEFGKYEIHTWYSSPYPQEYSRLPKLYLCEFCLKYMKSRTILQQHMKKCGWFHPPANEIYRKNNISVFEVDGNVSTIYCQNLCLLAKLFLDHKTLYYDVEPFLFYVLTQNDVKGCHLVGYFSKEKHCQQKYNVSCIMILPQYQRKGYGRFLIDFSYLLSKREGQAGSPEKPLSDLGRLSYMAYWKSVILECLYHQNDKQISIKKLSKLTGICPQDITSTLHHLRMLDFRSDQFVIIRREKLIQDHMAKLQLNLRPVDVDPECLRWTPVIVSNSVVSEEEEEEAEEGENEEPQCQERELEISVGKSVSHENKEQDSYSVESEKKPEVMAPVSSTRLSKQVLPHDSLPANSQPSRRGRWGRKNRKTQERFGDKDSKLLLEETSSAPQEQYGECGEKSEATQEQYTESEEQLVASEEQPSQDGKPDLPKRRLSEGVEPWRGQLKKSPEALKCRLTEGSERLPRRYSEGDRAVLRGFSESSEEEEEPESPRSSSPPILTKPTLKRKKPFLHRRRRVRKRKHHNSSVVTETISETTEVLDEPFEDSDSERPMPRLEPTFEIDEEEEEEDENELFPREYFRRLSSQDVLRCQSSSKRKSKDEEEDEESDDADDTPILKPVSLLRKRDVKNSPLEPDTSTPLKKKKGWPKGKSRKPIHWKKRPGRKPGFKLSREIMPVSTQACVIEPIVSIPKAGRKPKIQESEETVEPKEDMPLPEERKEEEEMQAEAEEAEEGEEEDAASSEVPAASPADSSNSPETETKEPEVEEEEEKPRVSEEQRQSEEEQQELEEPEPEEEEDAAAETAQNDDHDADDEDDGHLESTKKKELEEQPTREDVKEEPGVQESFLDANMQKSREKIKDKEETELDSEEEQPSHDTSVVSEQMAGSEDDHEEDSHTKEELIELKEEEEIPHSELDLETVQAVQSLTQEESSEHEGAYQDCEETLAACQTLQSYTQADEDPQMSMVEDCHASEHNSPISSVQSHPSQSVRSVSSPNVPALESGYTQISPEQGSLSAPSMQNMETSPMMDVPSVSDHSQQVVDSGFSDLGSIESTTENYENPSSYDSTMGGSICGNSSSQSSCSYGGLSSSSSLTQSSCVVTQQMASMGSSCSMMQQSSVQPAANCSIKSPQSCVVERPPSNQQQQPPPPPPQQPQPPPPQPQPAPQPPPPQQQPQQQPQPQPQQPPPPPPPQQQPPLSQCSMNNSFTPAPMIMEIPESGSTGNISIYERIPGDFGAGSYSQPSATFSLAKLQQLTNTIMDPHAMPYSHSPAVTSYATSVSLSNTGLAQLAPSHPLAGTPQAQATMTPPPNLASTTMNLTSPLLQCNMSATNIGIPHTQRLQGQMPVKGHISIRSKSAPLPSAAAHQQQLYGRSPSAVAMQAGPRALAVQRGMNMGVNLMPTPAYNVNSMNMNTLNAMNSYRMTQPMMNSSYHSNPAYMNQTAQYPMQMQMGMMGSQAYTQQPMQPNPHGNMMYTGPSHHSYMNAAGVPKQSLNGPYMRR

DC50 [nM] | Dmax [%] | Compound
< 10 | 50 to 75 | COc1ccc(N2CC3(CCN(CC4CCN(c5ccc6c(c5)C(=O)N(C5CCC(=O)NC5=O)C6=O)C4)CC3)C2)cc1S(=O)(=O)Nc1noc2cc(Cn3cccn3)cc(OC)c12 (stereo not shown) [Example 41, N-(6-((1H-pyrazol-1-yl)methyl)-4-methoxybenzo[d]isoxazol-3-yl)-5-(7-((1-(2-(2,6-dioxopiperidin-3-yl)-1,3-dioxoisoindolin-5-yl)pyrrolidin-3-yl)methyl)-2,7-diazaspiro[3.5]nonan-2-yl)-2-methoxybenzenesulfonamide]
< 10 | 50 to 75 | COc1cc(Cn2cccn2)cc2onc(NS(=O)(=O)c3cccc(N4CC5(CCN(CC6(C)CCN(c7ccc8c(c7)C(=O)N(C7CCC(=O)NC7=O)C8=O)C6)CC5)C4)c3)c12 (stereo not shown) [Example 12, N-(6-((1H-Pyrazol-1-yl)methyl)-4-methoxybenzo[d]isoxazol-3-yl)-3-(7-((1-(2-(2,6-dioxopiperidin-3-yl)-1,3-dioxoisoindolin-5-yl)-3-methylpyrrolidin-3-yl)methyl)-2,7-diazaspiro[3.5]nonan-2-yl)benzenesulfonamide]
< 10 | 50 to 75 | COc1cc(Cn2cccn2)cc2onc(NS(=O)(=O)c3cccc(N4CCC5(CC4)CN(C[C@@H]4CCN(c6ccc7c(c6)C(=O)N(C6CCC(=O)NC6=O)C7=O)C4)C5)c3)c12 (stereo partly drawn) [Example 14, N-(6-((1H-Pyrazol-1-yl)methyl)-4-methoxybenzo[d]isoxazol-3-yl)-3-(2-(((3S)-1-(2-(2,6-dioxopiperidin-3-yl)-1,3-dioxoisoindolin-5-yl)pyrrolidin-3-yl)methyl)-2,7-diazaspiro[3.5]nonan-7-yl)benzenesulfonamide]
< 10 | > 75 | COc1ccc(N2CC3(CCN(C[C@@H]4CCN(c5ccc6c(c5)C(=O)N(C5CCC(=O)NC5=O)C6=O)C4)CC3)C2)c(OC)c1S(=O)(=O)Nc1noc2cc(Cn3cccn3)cc(OC)c12 (stereo partly drawn) [Example 25, N-(6-((1H-Pyrazol-1-yl)methyl)-4-methoxybenzo[d]isoxazol-3-yl)-3-(7-(((3S)-1-(2-(2,6-dioxopiperidin-3-yl)-1,3-dioxoisoindolin-5-yl)pyrrolidin-3-yl)methyl)-2,7-diazaspiro[3.5]nonan-2-yl)-2,6-dimethoxybenzenesulfonamide]
< 10 | > 75 | COc1c(N2CC3(CCN(C[C@@H]4CCN(c5ccc6c(c5)CN(C5CCC(=O)NC5=O)C6=O)C4)CC3)C2)cccc1S(=O)(=O)Nc1noc2cc(Cn3cccn3)cc(OC)c12 (stereo partly drawn) [Example 26, N-(6-((1H-Pyrazol-1-yl)methyl)-4-methoxybenzo[d]isoxazol-3-yl)-3-(7-(((3S)-1-(2-(2,6-dioxopiperidin-3-yl)-1-oxoisoindolin-5-yl)pyrrolidin-3-yl)methyl)-2,7-diazaspirononan-2-yl)-2-methoxybenzenesulfonamide]

Further lines, the compound ahead of its results:

Compound | DC50 [nM] | Dmax [%]
COc1cc(Cn2cccn2)cc2onc(NS(=O)(=O)c3cccc(N4CCN(C(=O)C5CCN(c6ccc7c(c6)C(=O)N(C6CCC(=O)NC6=O)C7=O)C5)CC4)c3)c12 (stereo not shown) [Example 24, N-(6-((1H-pyrazol-1-yl)methyl)-4-methoxybenzo[d]isoxazol-3-yl)-3-(4-(1-(2-(2,6-dioxopiperidin-3-yl)-1,3-dioxoisoindolin-5-yl)pyrrolidine-3-carbonyl)piperazin-1-yl)benzenesulfonamide] | – | ≤ 25
COc1cc(Cn2cccn2)cc2onc(NS(=O)(=O)c3cccc(N4CC5(CCN(C6CC7(CCN(c8ccc9c(c8)C(=O)N(C8CCC(=O)NC8=O)C9=O)C7)C6)CC5)C4)c3)c12 (stereo not shown) [Example 22, N-(6-((1H-Pyrazol-1-yl)methyl)-4-methoxybenzo[d]isoxazol-3-yl)-3-(7-(6-(2-(2,6-dioxopiperidin-3-yl)-1,3-dioxoisoindolin-5-yl)-6-azaspiro[3.4]octan-2-yl)-2,7-diazaspiro[3.5]nonan-2-yl)benzenesulfonamide] | < 10 | 50 to 75
COc1cc(Cn2cccn2)cc2onc(NS(=O)(=O)c3cccc(N4CCN(CC5CC6(CCN(c7ccc8c(c7)C(=O)N(C7CCC(=O)NC7=O)C8=O)CC6)C5)CC4)c3)c12 (stereo not shown) [Example 19, N-(6-((1H-Pyrazol-1-yl)methyl)-4-methoxybenzo[d]isoxazol-3-yl)-3-(4-((7-(2-(2,6-dioxopiperidin-3-yl)-1,3-dioxoisoindolin-5-yl)-7-azaspiro[3.5]nonan-2-yl)methyl)piperazin-1-yl)benzenesulfonamide] | 10 to 100 | 50 to 75
COc1cc(Cn2cccn2)cc2onc(NS(=O)(=O)c3cccc(N4CCC5(CCN(C[C@@H]6CCN(c7ccc8c(c7)CN(C7CCC(=O)NC7=O)C8=O)C6)CC5)CC4)c3)c12 (stereo partly drawn) [Example 39, N-(6-((1H-Pyrazol-1-yl)methyl)-4-methoxybenzo[d]isoxazol-3-yl)-3-(9-(((3S)-1-(2-(2,6-dioxopiperidin-3-yl)-1-oxoisoindolin-5-yl)pyrrolidin-3-yl)methyl)-3,9-diazaspiro[5.5]undecan-3-yl)benzenesulfonamide] | < 10 | > 75
COc1cc(Cn2cccn2)cc2onc(NS(=O)(=O)c3cccc(N4CC5(CCN(CC6CCN(c7ccc8c(c7)C(=O)N(C7CCC(=O)NC7=O)C8)C6)CC5)C4)c3)c12 (stereo not shown) [Example 34, N-(6-((1H-pyrazol-1-yl)methyl)-4-methoxybenzo[d]isoxazol-3-yl)-3-(7-((1-(2-(2,6-dioxopiperidin-3-yl)-3-oxoisoindolin-5-yl)pyrrolidin-3-yl)methyl)-2,7-diazaspirononan-2-yl)benzenesulfonamide] | < 10 | 50 to 75
COc1cc(Cn2cccn2)cc2onc(NS(=O)(=O)c3cccc(N4CCN(CC5CCN(c6cccc7c6C(=O)N(C6CCC(=O)NC6=O)C7=O)CC5)CC4)c3)c12 (stereo not shown) [Example 32, 3-[4-[[1-[2-(2,6-Dioxopiperidin-3-yl)-1,3-dioxoisoindol-4-yl]piperidin-4-yl]methyl]piperazin-1-yl]-N-[4-methoxy-6-(pyrazol-1-ylmethyl)-1,2-benzoxazol-3-yl]benzenesulfonamide] | 10 to 100 | 50 to 75
COc1cc(Cn2cccn2)cc2onc(NS(=O)(=O)c3cccc(N4CC5(CCN(CC6(F)CCN(c7ccc8c(c7)C(=O)N(C7CCC(=O)NC7=O)C8=O)C6)CC5)C4)c3)c12 (stereo not shown) [Example 13, N-(6-((1H-Pyrazol-1-yl)methyl)-4-methoxybenzo[d]isoxazol-3-yl)-3-(7-((1-(2-(2,6-dioxopiperidin-3-yl)-1,3-dioxoisoindolin-5-yl)-3-fluoropyrrolidin-3-yl)methyl)-2,7-diazaspiro[3.5]nonan-2-yl)benzenesulfonamide] | 10 to 100 | 50 to 75
COc1cc(Cn2cccn2)cc2onc(NS(=O)(=O)c3cccc(N(C)C4CCN(C[C@@H]5CCN(c6ccc7c(c6)CN([C@H]6CCC(=O)NC6=O)C7=O)C5)CC4)c3)c12 [Example 37, N-(6-((1H-Pyrazol-1-yl)methyl)-4-methoxybenzo[d]isoxazol-3-yl)-3-((1-(((S)-1-(2-((S)-2,6-dioxopiperidin-3-yl)-1-oxoisoindolin-5-yl)pyrrolidin-3-yl)methyl)piperidin-4-yl)(methyl)amino)benzenesulfonamide] | < 10 | 50 to 75
